Results reported in ChEMBL document CHEMBL1139164, “Optimization of halopemide for phospholipase D2 inhibition” (Bioorg Med Chem Lett, 2007).
pIC50: −log10 of the molar value.

Assays:
Phospholipase D2 [1] = molecular target: T1, Phospholipase D2 (Homo sapiens, UniProt O14939)
Phospholipase D2 [2] = molecular target: T1, Phospholipase D2; assay: Inhibition of PLD2 at 1 uM
[3] = Half life in rat at 5 mg/kg, po or 1 mg/kg, iv; assay type: ADME, organism-based; details: in vivo
[4] = Clearance in rat at 5 mg/kg, po or 1 mg/kg, iv; assay type: ADME, organism-based; details: in vivo
[5] = Cmax in rat at 5 mg/kg, po or 1 mg/kg, iv; assay type: ADME, organism-based; details: in vivo
Rattus norvegicus = assay: AUC in rat at 5 mg/kg, po or 1 mg/kg, iv; assay type: ADME, organism-based, Plasma; details: in vivo
[6] = Oral bioavailability in rat at 5 mg/kg; assay type: ADME, organism-based; details: in vivo

T1 sequence (O14939 whole entry): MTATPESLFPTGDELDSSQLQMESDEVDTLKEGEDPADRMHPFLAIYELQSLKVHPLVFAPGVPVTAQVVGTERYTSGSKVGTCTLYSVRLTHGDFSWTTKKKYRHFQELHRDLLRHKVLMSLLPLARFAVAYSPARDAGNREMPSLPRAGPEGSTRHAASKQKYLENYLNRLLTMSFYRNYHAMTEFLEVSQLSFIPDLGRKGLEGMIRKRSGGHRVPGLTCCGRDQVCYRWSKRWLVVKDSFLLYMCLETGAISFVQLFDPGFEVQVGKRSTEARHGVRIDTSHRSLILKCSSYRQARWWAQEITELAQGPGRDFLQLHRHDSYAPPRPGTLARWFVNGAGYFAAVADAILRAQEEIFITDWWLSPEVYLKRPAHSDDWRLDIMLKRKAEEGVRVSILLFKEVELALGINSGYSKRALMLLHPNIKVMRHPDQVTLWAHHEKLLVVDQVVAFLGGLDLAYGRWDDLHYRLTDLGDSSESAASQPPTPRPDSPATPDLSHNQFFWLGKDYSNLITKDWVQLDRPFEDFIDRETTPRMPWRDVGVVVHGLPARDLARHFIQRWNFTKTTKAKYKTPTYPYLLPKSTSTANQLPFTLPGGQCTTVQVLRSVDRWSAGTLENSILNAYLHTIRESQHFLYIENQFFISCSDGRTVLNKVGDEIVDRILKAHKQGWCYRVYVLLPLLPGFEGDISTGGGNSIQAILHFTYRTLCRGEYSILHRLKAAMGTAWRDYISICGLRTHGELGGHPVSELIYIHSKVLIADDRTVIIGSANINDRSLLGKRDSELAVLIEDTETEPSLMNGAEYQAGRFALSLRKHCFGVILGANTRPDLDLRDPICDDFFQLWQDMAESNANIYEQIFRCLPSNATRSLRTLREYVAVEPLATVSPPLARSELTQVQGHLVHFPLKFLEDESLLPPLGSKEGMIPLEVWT

pIC50 (Phospholipase D2 [1]) | Compound | inhibition (Phospholipase D2 [2]) [%] | also measured
7.70 | O=C(NCCN1CCC(n2c(=O)[nH]c3ccccc32)CC1)c1cc2ccccc2[nH]1 |  | 
5.85 | O=C(NCCN1CCC(n2c(=O)[nH]c3ccccc32)CC1)c1ccc(F)cc1 |  | 
 | CC(C)C(=O)NCCN1CCC(n2c(=O)[nH]c3ccccc32)CC1 | 0 | 
6.00 | O=C(NCCN1CCC(n2c(=O)[nH]c3ccccc32)CC1)c1ccsc1 |  | 
 | Cn1c(C(=O)NCCN2CCC(n3c(=O)[nH]c4ccccc43)CC2)cc2ccccc21 | 0 | 
5.82 | O=C(NCCN1CCC(n2c(=O)[nH]c3ccccc32)CC1)c1ccccc1 |  | 
7.70 | O=C(NCCN1CCC(n2c(=O)[nH]c3ccccc32)CC1)c1cc2cc(F)ccc2[nH]1 |  | half-life [3]: 334 min; clearance [4]: 36.3 mL/min/kg; Cmax [5]: 363 nM; AUC (Rattus norvegicus): 1.03 uM.hr/L; bioavailability [6]: 18.5%
 | O=C(Cc1ccc(F)cc1)NCCN1CCC(n2c(=O)[nH]c3ccccc32)CC1 | 0 | 
 | O=C(NCCN1CCC(n2c(=O)[nH]c3ccccc32)CC1)OCc1ccccc1 | 0 | 
5.70 | O=C(NCCN1CCC(n2c(=O)[nH]c3ccccc32)CC1)c1cc2ccccc2s1 |  | 
 | O=C(CCc1ccc(F)cc1)NCCN1CCC(n2c(=O)[nH]c3ccccc32)CC1 | 0 | 
 | CC(C)CC(=O)NCCN1CCC(n2c(=O)[nH]c3ccccc32)CC1 | 0 | 
